Test results as given in article PMC6349357, “Computational and experimental analysis of bioactive peptide linear motifs in the integrin adhesome” (PLoS ONE, 2019).
Marks after values point to notes of the source that are not given here.

What was measured:
[1] = system: tyrosine phosphorylation in platelets; assay: Phosphotyrosine western blot (4G10) of platelets treated with peptide; format: cell-based, human (healthy volunteers); parameters: key to Phospho: R: in resting platelets; A: after TRAP activation; conditions: phosphorylation changes associated with peptide treatment; pal 20 μM, tat 50 μM, TRAP 4 μM
Method: A platelet concentration of 3x10^5 /μl was used when performing standard aggregations and a concentration of 1x10^6 /μl was used for sample preparation for western blot analysis. The extent of platelet aggregation was measured by quantifying the optical density of the samples using the Bio-Data PAP-8 aggregometer (platelet aggregation profiler, Horsham, PA, USA). A temperature of 37°C was maintained and samples were stirred using magnets spinning at 1100 rpm. 200 μl of washed platelets was added to each aggregation tube. Different volumes of buffer, peptide and TRAP were added to achieve the desired concentrations. Peptide/buffer was added to each well after two minutes. TRAP, with a final concentration depending on the experiment, was added 6 minutes later and data was collected for an additional 7 minutes.
After the aggregation step, tubes were immediately placed on ice. 27 μl of lysis buffer was then added and the tube was vortexed vigorously. Lysates were left on ice for one hour and vortexed frequently. Proteins were then centrifuged at 14,000 rcf for 10 minutes to remove debris. Samples were then mixed with 2x sample buffer. 50 μl each sample was added to 50 μl of sample buffer. The protein was then denatured by heating to 95°C for 5 minutes. 10 μl of lysate was kept for protein quantification. All samples and lysates were frozen at -80°C.
The Bradford assay was then performed on the lysates to determine protein concentration. Protein concentrations were measured using the Bio-Rad DC Protein Assay. A calibration was created using samples containing a known concentration of bovine serum albumin. These were prepared in advance by sequential dilutions with final concentrations of 1.5mg/ml, 1mg/ml, 0.8mg/ml, 0.6mg/ml, 0.4mg/ml, 0.2mg/ml, 0mg/ml. Samples were then dispensed into a 96 well plate and the Bio-Rad DC reagents were added as described in the protocol. Samples were left to rest for 15 minutes and were then read using 690 0.15 mode on the Wallac plate reader. A standard curve was calculated from the standard samples of known concentration and the y = ax+b equation was used to determine the concentration of the other samples.
Sodium Dodecyl Sulfate Polyacrylamide Gel Electrophoresis (SDS-PAGE) was performed to separate proteins by molecular weight. Polyacrylamide gels were prepared (see Reagents section). Samples or molecular markers were loaded in volumes to give 20 μg of protein. The gels were then run for approximately 80 minutes or until the samples reached the end of the gel. The proteins were then transferred to polyvinylidene difluoride (PVDF) membranes using a Bio-Rad Wet Blot Transfer Cell apparatus. During the transfer the membranes were submerged in 1x transfer buffer (10% 10x transfer buffer, 70% deionised water and 20% methanol). Transfer was performed either overnight at 40 volts at 4°C, or at 100 volts for 1 hour cooled with an ice block. After the transfer the membranes were blocked for 1 hour using 3% bovine albumin serum (BSA) dissolved in TBS-T. Membranes were incubated with 4G10 antibody with a 1:1000 dilution. Unbound primary antibody was washed off with TBS-T three times for 5 minutes each. Membranes were then incubated with anti-mouse IgG secondary antibody (Millipore) with a dilution of 1:30,000. Membranes were submerged in chemiluminescence ECL solution (Thermo Scientific). They were then measured using the western blot developer UVP. One image was taken every 80 seconds for 40 minutes. Numeric data was extracted from selected blots using ImageJ.

resting platelets = assay: Platelet aggregation induced by peptide in resting washed platelets (activation); format: cell-based, human (healthy volunteers)
Method in brief: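 Washed human platelets (from ACD blood, PGE1-treated) were used at 3x10^5/μl in buffer A pH 7.4 with 1.8 mM CaCl2. Light-transmission aggregometry ran at 37°C with stirring at 1100 rpm. Peptide or buffer was added at 2 min, TRAP 6 min later, and aggregation was recorded for a further 7 min.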

Question: Which Phospho [1] does the source give for “tat-WEQLLTTIARTINEVENQI-(NH2) [tat-ACTN1_VBS]” here?
Answer: Its Phospho is “R”.

Question: What about the Platelet activation, donor 14 06 13 (resting platelets; Fig S10 sheet, replicate 14_06_13, peptide 50 µM, unit assumed) of the same substance?
Answer: Its Platelet activation, donor 14 06 13 is 68%.

Question: And the Platelet activation, donor 18 06 13 (resting platelets; Fig S10 sheet, replicate 18_06_13, peptide 50 µM, unit assumed)?
Answer: The Platelet activation, donor 18 06 13 was 73%.

Question: What about the Platelet activation, donor 22 08 13 DONOR1 (resting platelets; Fig S10 sheet, replicate 22_08_13_DONOR1, peptide 50 µM, unit assumed) of the same substance?
Answer: Its Platelet activation, donor 22 08 13 DONOR1 is 59%.

Question: And the Platelet activation, donor 22 08 13 DONOR2 (resting platelets; Fig S10 sheet, replicate 22_08_13_DONOR2, peptide 50 µM, unit assumed)?
Answer: The Platelet activation, donor 22 08 13 DONOR2 was 41%.

Question: And the Activation (resting platelets; platelet aggregation in resting platelets after 6 minutes incubation with peptide, pal-peptides 20 μM, tat-peptides 50 μM, optical density, aggregometer, mean, n>=3)?
Answer: Its Activation is 66 ^*.

Question: What about the “Aggregation before TRAP activation, donor e” value (resting platelets; replicate donor e, pal 20 μM, tat 50 μM) of the same substance?
Answer: The value was 73.

Question: And the “Aggregation before TRAP activation, donor k” value (resting platelets; replicate donor k, pal 20 μM, tat 50 μM)?
Answer: Its value is 59.

Question: What about the “Aggregation before TRAP activation, donor l” value (resting platelets; replicate donor l, pal 20 μM, tat 50 μM) of the same substance?
Answer: Its value is 68.
